Measured values: patent US10822349B2, “Macrocyclic purines for the treatment of viral infections” (JANSSEN SCIENCES IRELAND UNLIMITED COMPANY, priority 2012, dated 2020)

Tests used:
[1] = biological target: T1, human TLR7 (Homo sapiens, UniProt Q9NYK1); test: TLR7 cellular reporter assay (HEK293 TLR7-NFκB-luc); assay type: cell-based; conditions: lowest effective concentration; HEK293 transiently transfected with TLR7 and NFκB-luc; 6 hours incubation
T1 construct: expressed in transfected cells; host or cells: HEK293
T1 sequence (Q9NYK1 27-1049): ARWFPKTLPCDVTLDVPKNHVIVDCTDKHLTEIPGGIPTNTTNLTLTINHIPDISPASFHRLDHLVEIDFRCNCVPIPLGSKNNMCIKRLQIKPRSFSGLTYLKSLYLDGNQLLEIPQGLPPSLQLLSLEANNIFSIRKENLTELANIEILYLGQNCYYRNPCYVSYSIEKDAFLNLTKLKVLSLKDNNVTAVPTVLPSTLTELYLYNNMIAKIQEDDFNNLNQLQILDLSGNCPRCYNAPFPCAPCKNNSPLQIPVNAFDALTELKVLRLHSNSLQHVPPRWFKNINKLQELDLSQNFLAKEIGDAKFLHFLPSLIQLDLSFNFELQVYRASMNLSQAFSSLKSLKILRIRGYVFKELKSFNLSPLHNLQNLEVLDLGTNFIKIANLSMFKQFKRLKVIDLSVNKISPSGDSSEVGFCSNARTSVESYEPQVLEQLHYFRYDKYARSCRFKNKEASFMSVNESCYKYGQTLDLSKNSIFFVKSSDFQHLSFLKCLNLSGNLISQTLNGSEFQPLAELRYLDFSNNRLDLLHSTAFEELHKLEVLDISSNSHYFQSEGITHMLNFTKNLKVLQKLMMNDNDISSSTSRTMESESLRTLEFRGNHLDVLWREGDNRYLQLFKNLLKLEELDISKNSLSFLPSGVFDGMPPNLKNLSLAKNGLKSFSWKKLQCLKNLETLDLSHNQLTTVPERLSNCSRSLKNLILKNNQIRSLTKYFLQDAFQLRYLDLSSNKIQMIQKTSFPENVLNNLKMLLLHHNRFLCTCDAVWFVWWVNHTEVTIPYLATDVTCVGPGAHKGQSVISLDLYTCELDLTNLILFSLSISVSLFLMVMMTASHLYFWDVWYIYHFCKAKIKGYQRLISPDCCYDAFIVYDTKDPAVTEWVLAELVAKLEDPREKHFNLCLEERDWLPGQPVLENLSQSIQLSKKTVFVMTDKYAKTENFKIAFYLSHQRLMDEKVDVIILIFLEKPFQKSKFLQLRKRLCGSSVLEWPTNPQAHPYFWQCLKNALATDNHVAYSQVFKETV
Description: The ability of compounds to activate human TLR7 and TLR8 was assessed in a cellular reporter assay using HEK293 cells transiently transfected with a TLR7 or TLR8 expression vector and NFκB-luc reporter construct. Briefly, HEK293 cells were grown in culture medium (DMEM supplemented with 10% FCS and 2 mM Glutamine). For transfection of cells in 10 cm dishes, cells were detached with Trypsin-EDTA, transfected with a mix of CMV-TLR7 or TLR8 plasmid (750 ng), NFκB-luc plasmid (375 ng) and a transfection reagent and incubated 48 hours at 37° C. in a humidified 5% CO2 atmosphere. Transfected cells were then detached with Trypsin-EDTA, washed in PBS and resuspended in medium to a density of 1.67×10^5 cells/mL. Thirty microliters of cells were then dispensed into each well in 384-well plates, where 10 μL of compound in 4% DMSO was already present. Following 6 hours incubation at 37° C., 5% CO2, the luciferase activity was determined by adding 15 μl of Steady Lite Plus substrate (Perkin Elmer) to each well and readout performed on a ViewLux ultraHTS microplate imager (Perkin Elmer). Dose response curves were generated from measurements performed in quadruplicates. Lowest effective concentrations (LEC) values, defined as the concentration that induces an effect which is at least two fold above the standard deviation of the assay, were determined for each compound.

[2] = system: interferon production in human PBMC; test: Interferon production in human PBMC, read out on HEK-ISRE-luc reporter cells; assay type: cell-based; conditions: Homo sapiens, PBMC, 24 h, lowest effective concentration, PBMC supernatant after overnight incubation transferred to HEK-ISRE-luc cells, read-out: PBMC HEK-ISRE-luc (LEC; μM)
Description: Activation of human TLR7 results in robust production of interferon by plasmacytoid dendritic cells present in human blood. The potential of compounds to induce interferon was evaluated by determination of interferon in the conditioned media from peripheral blood mononuclear cells (PBMC). The presence of interferon in the samples was determined, using an interferon reporter cell line stably expressing an interferon-stimulated responsive elements (ISRE)-luc reporter construct. The ISRE element with sequence GAAACTGAAACT (SEQ ID: 1) is highly responsive to the STAT1-STAT2-IRF9 transcription factor, which becomes activated upon binding of IFN-I to the IFN receptor. Briefly, PBMCs were prepared from buffy coats of at least two donors using a standard Ficoll centrifugation protocol. Isolated PBMCs were resuspended in RPMI medium supplemented with 10% human AB serum and 2×10^5 cells/well were dispensed into 384-well plates containing compounds (70 μL total volume). After overnight incubation of the PBMCs with the compounds, 10 μL of supernatant was transferred to 384-well plates containing 5×10^3 HEK-ISRE-luc cells/well in 30 μL (plated the day before). Following 24 hours of incubation, activation of the ISRE elements was measured by assaying luciferase activity using 40 μL/well Steady Lite Plus substrate (Perkin Elmer) and measured with ViewLux ultraHTS microplate imager (Perkin Elmer). The stimulating activity of each compound on the HEK-ISRE-luc cells was reported as LEC. The LEC in turn indicates the degree of ISRE activation on transfer of a defined amount of PBMC culture medium. Recombinant interferon alfa-2a (Roferon-A) was used as a standard control compound.

Compound	HEK293 TLR7-NFκB-luc (LEC; μM) [1]	minimal effective concentration [2]
Nc1nc2nc3c1nc(O)n3Cc1ccc(F)c(c1)OCCCCN2 [Compound 92]	0.47 µM	
Nc1nc2nc3c1nc(O)n3Cc1cccc(=O)n1CCCCN2 [Compound 35]	1.68 µM	0.41 µM
Nc1nc2nc3c1nc(O)n3Cc1ncccc1OC/C=C/CCO2 [Compound 44]	5.77 µM	0.62 µM
Nc1nc2nc3c1nc(O)n3Cc1ccc(cc1)C/C=C\CCCCO2 [Compound 36]	12.45 µM	0.68 µM
COc1ccc2cc1OC/C=C\COc1nc(N)c3nc(O)n(c3n1)C2 [Compound 57]	0.08 µM	0.021 µM
Nc1nc2nc3c1ncn3Cc1ncccc1OC/C=C/CCO2 [Compound 78]	9.68 µM	> 25 µM
Nc1nc2nc3c1nc(O)n3CCc1cccc(c1)OCCCCO2 [Compound 64]	1.49 µM	0.5 µM
COc1ccc2cc1C/C=C/CCOc1nc(N)c3nc(O)n(c3n1)C2 [Compound 68]	0.006 µM	0.0057 µM
Nc1nc2nc3c1nc(O)n3Cc1cccc(c1)OCCCCO2 [Compound 11]	0.050 µM	0.022 µM
Nc1nc2nc3c1nc(O)n3Cc1ccc(F)c(c1)OC/C=C/CO2 [Compound 87]	0.034 µM	
COc1c2cccc1OCCCCOc1nc(N)c3nc(O)n(c3n1)C2 [Compound 59]	4.41 µM	1.92 µM
Nc1nc2nc3c1nc(O)n3Cc1ccc(F)c(c1)OCCCCO2 [Compound 91]	0.14 µM	
Nc1nc2nc3c1nc(O)n3Cc1cccc(c1)OC/C=C/CCO2 [Compound 27]	1.31 µM	0.11 µM
Nc1nc2nc3c1nc(O)n3Cc1ccc(F)c(c1)OC/C=C/CN2 [Compound 90]	0.063 µM	
Nc1nc2nc3c1nc(O)n3Cc1ncccc1OC/C=C\CCO2 [Compound 45]	0.108 µM	0.01 µM
Nc1nc2nc3c1nc(O)n3Cc1cccc(c1)C/C=C/CCC(CO)N2 (centres unmarked) [Compound 7]	0.87 µM	0.31 µM
Nc1nc2nc3c1nc(O)n3Cc1cccc(c1)OC/C=C/CO2 [Compound 23]	0.043 µM	0.012 µM
Nc1nc2nc3c1nc(O)n3Cc1ccc(cc1)OC/C=C/CCCO2 [Compound 81]	4.59 µM	0.63 µM

Compound	HEK293 TLR7-NFκB-luc (LEC; μM) [1]	minimal effective concentration [2]
Nc1nc2nc3c1nc(O)n3Cc1cccc(c1)C/C=C/CCCO2 [Compound 16]	0.375 µM	0.11 µM
COc1ccc2cc1C/C=C\CCOc1nc(N)c3nc(O)n(c3n1)C2 [Compound 67]	0.0024 µM	0.0028 µM
Nc1nc2nc3c1nc(O)n3Cc1cccc(c1)OCCOCCN2 [Compound 13]	14.69 µM	4.7 µM
COc1cc2cc(c1)OCCCCOc1nc(N)c3nc(O)n(c3n1)C2 [Compound 53]	0.029 µM	0.01 µM
Nc1nc2nc3c1nc(O)n3Cc1cccc(c1)OCC/C=C\CO2 [Compound 20]	0.74 µM	0.15 µM
COc1ccc2cc1Cn1c(O)nc3c(N)nc(nc31)OCC/C=C/C2 [Compound 73]	0.045 µM	0.01 µM
Nc1nc2nc3c1nc(O)n3Cc1cccc(c1)CCCCCO2 [Compound 2]	0.51 µM	0.22 µM
Nc1nc2nc3c1nc(O)n3CCc1cccc(c1)C/C=C/CCO2 [Compound 82]	3.95 µM	
Nc1nc2nc3c1nc(O)n3Cc1cccc(c1)C/C=C/CCCn1ccnc1-2 [Compound 3]	1.05 µM	0.14 µM
Nc1nc2nc3c1nc(O)n3Cc1cccc(n1)CC/C=C\CCO2 [Compound 46]	6.49 µM	1.13 µM
Nc1nc2nc3c1nc(O)n3Cc1cccc(c1)C/C=C/CCCCO2 [Compound 34]	9.81 µM	0.032 µM
Nc1nc2nc3c1nc(O)n3Cc1cccc(c1)OCCCCN2 [Compound 8]	2.42 µM	0.68 µM
Nc1nc2nc3c1nc(O)n3Cc1cccc(c1)CCCCCN2 [Compound 31]	1.36 µM	0.263 µM
Nc1nc2nc3c1nc(O)n3Cc1ccc(nc1)OCC(=O)NCCCO2 [Compound 6]	>10 µM	1.73 µM
Nc1nc2nc3c1nc(O)n3Cc1ccc(nc1)OCC/C=C/CCO2 [Compound 25]	20.22 µM	3.61 µM
COc1ccc2cc1OCCCCOc1nc(N)c3nc(O)n(c3n1)C2 [Compound 56]	0.056 µM	0.01 µM
Nc1nc2nc3c1nc(O)n3Cc1ccc(F)c(c1)OC/C=C\CN2 [Compound 89]	0.4 µM	
Nc1nc2nc3c1nc(O)n3Cc1ccc(F)c(c1)OC/C=C\CO2 [Compound 88]	0.11 µM	
